# Experiments:
# [1] = target: T1, CXCR4 (Homo sapiens, UniProt P61073); assay: Inhibition of 125I-SDF-1α binding to receptors CXCR4 on MT-4 cells (Test Example 2); conditions: binding-inhibition % at 0.01 μM, 2 hours under ice-cooling, read-out: Inhibition rate (%)
# T1 construct: endogenous in cells; host or cells: MT-4 cells
# Method: MT-4 cells (5×10^6/0.2 ml/well) were cultured on a 24-well microtiter plate. After the cells were incubated for 24 hours at 37° C. in a carbon dioxide gas incubator, a culture medium was replaced with a buffer solution (0.1% BSA-containing RPMI-1640). Together with a ligand ^125I-SDF-1α (specific activity: 2,200 Ci/mmol; available from Daiichi Pure Chemicals Co., Ltd. (Tokyo)), test materials with various concentrations were subjected to a binding reaction for 2 hours under ice-cooling. […] Then, a rate of inhibition of the binding between radioactive ligands and receptors CXCR4 by a test material was calculated (a binding-inhibition % at 0.01 μM).
# [2] = system: SD mice; assay: Acute toxicity, single transvenous administration (Test Example 3); format: in vivo; conditions: 6-week-old male SD mice, 2.5 mg/kg transvenously once in physiological saline
# Method: The aforementioned compound was examined for acute toxicity. Specifically, 6-week-old SD mice (male) were divided into several groups (2 to 3 mice in each group). Subsequently, each of the compounds of Examples was dissolved in a physiological saline solution, and the solution was transvenously administered to the mice (dose: 2.5 mg/kg) once. Then, the number of dead mice was counted.
# [3] = system: HIV-1IIIB infected MT-4 cells; assay: Anti-HIV activity, HIV-1IIIB infected MT-4 cells, MTT method (Test Example 1); format: cell-based; conditions: Human immunodeficiency virus 1, MT4, 120 h, concentration required for inhibition of cell disorder due to HIV infection by 50%, MOI 0.01, 5 days
# Method: Immediately after infection, HIV-1IIIB infected MT-4 cells (3.0×10^4/well, MOI (Multiplicity of infection): 0.01) were added to a 96-well microtiter plate together with the test compounds having different concentrations. The cells were cultured in a carbon dioxide incubator at 37° C. for 5 days, and the number of living cells was measured in accordance with the MTT (tetrazolium) method ([…], et al., J. of Virol. Method, 20, 309-321 […]). The antiviral activity is represented by the concentration required for inhibition of cell disorder due to HIV infection by 50% (EC50: 50% Effective Concentration) (μM), and the results are shown in Table 2.
# T1 sequence (P61073 whole entry): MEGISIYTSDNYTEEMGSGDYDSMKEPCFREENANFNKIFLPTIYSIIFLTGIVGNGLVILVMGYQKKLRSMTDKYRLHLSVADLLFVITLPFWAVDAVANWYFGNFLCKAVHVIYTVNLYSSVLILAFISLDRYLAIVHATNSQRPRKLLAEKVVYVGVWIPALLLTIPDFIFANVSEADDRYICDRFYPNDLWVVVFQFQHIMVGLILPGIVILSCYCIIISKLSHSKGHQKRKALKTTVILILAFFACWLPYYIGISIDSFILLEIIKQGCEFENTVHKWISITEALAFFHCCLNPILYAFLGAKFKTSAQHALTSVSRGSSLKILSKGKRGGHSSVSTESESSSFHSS
SMILES,inhibition at 0.01 µM [1],Dead mice/test mice [2],EC50 [3]
"CCCN(CCC)Cc1ccc(-c2nc3ccc(CN(Cc4ncc[nH]4)Cc4nccn4C)cc3n2C)cc1 [Compound No. 29, [4-(6-{[(1H-imidazol-2-ylmethyl)-(1-methyl-1H-imidazol-2-ylmethyl)-amino]-methyl}-1-methyl-1H-benzimidazol-2-yl)-benzyl]-dipropyl-amine]",71.2%,0/3,61 nM
CCCN(CCC)CCCCNC(=O)c1cn2cc(CN(Cc3ncc[nH]3)Cc3nccn3C)ccc2n1 [Compound No. 30],46%,0/3,92 nM
"CCCN(CCC)CCCCN(Cc1ccc(CN(Cc2ncc[nH]2)Cc2nccn2C)cc1)CC(F)(F)F [Compound No. 31, N-(4-{[(1H-imidazol-2-ylmethyl)-(1-methyl-1H-imidazol-2-ylmethyl)-amino]-methyl}-benzyl)-N′,N′-dipropyl-N-(2,2,2-trifluoro-ethyl)-butane-1,4-diamine]",47.3%,0/3,74 nM
"CCCN(CCC)CCCCN(CCC#N)Cc1ccc(CN(Cc2ncc[nH]2)Cc2nccn2C)cc1 [Compound No. 33, 3-[(4-dipropylamino-butyl)-(4-{[(1H-imidazol-2-ylmethyl)-(1-methyl-1H-imidazol-2-ylmethyl)-amino]-methyl}-benzyl)-amino]-propionitrile]",85.2%,0/3,3 nM
"CCCN(CCC)CCCCN(CCC(=O)OC)Cc1ccc(CN(Cc2ncc[nH]2)Cc2nccn2C)cc1 [Compound No. 34, 3-[(4-dipropylamino-butyl)-(4-{[(1H-imidazol-2-ylmethyl)-(1-methyl-1H-imidazol-2-ylmethyl)-amino]-methyl}-benzyl)-amino]-propionic acid methyl ester]",85.5%,0/3,3 nM
"CCCN(CCC)CCCCNC(=S)Nc1ccc(CN(Cc2ncc[nH]2)Cc2nccn2C)cc1 [Compound No. 35, 1-(4-dipropylamino-butyl)-3-(4-{[(1H-imidazol-2-ylmethyl)-(1-methyl-1H-imidazol-2-ylmethyl)-amino]-methyl}-phenyl)-thiourea]",86.3%,0/3,7 nM
"CCCN(CCC)CCCc1cccc(-c2ccc(CN(Cc3ncc[nH]3)Cc3nccn3C)cc2)n1 [Compound No. 36, {3-[6-(4-{[(1H-imidazol-2-ylmethyl)-(1-methyl-1H-imidazol-2-ylmethyl)-amino]-methyl}-phenyl)-pyridin-2-yl]-propyl}-dipropyl-amine]",58%,0/3,656 nM
"CCCN(CCC)CCCCN(Cc1ccc(CN(Cc2ncc[nH]2)Cc2nccn2C)cc1)C(=O)C(F)(F)F [Compound No. 37, N-(4-dipropylamino-butyl)-2,2,2-trifluoro-N-(4-{[(1H-imidazol-2-ylmethyl)-(1-methyl-1H-imidazol-2-ylmethyl)-amino]-methyl}-benzyl)-acetamide]",92.3%,0/3,3 nM
"CN(CCCCN1CCCCC1)Cc1ccc(CN(Cc2ncc[nH]2)Cc2nccn2C)cc1 [Compound No. 44, (4-{[(1H-imidazol-2-ylmethyl)-(1-methyl-1H-imidazol-2-ylmethyl)-amino]-methyl}-benzyl)-methyl-(4-piperidin-1-ylbutyl)amine]",81.6%,0/3,2 nM
"CCCN(CCC)CCCc1nc2ccc(CN(Cc3ncc[nH]3)Cc3nccn3C)cc2n1CCC [Compound No. 46, [3-(6-{[(1H-imidazol-2-ylmethyl)-(1-methyl-1H-imidazol-2-ylmethyl)-amino]-methyl}-1-propyl-1H-benzimidazol-2-yl)-propyl]-dipropyl-amine]",74.6%,0/3,17 nM
"CCCN(CCC)CCCCc1nc2ccc(CN(Cc3ncc[nH]3)Cc3nccn3C)cc2n1C(C)C [Compound No. 47, [4-(6-{[(1H-imidazol-2-ylmethyl)-(1-methyl-1H-imidazol-2-ylmethyl)-amino]-methyl}-1-isopropyl-1H-benzimidazol-2-yl)-butyl]-dipropyl-amine]",86.2%,0/3,2 nM
"CCCN(CCC)CCCCN(Cc1ccc(CN(Cc2ncc[nH]2)C2CCCc3cccnc32)cc1)S(C)(=O)=O (stereo not drawn) [Compound No. 50, N-(4-dipropylamino-butyl)-N-(4-{[(1H-imidazol-2-ylmethyl)-(5,6,7,8-tetrahydro-quinolin-8-yl)-amino]-methyl}-benzyl)-methanesulfonamide]",53.4%,0/3,401 nM
"CCCN(CCC)CCCCN(CCC(=O)O)Cc1ccc(CN(Cc2ncc[nH]2)Cc2nccn2C)cc1 [Compound No. 51, 3-[(4-dipropylamino-butyl)-(4-{[(1H-imidazol-2-ylmethyl)-(1-methyl-1H-imidazol-2-ylmethyl)-amino]-methyl}-benzyl)-amino]-propionic acid]",85.8%,0/3,2 nM
"CCCN(CCC)CCCCN(CC#N)Cc1ccc(CN(Cc2ncc[nH]2)Cc2nccn2C)cc1 [Compound No. 82, [(4-dipropylamino-butyl)-(4-[[(1H-imidazol-2-ylmethyl)-(1-methyl-1H-imidazol-2-ylmethyl)-amino]-methyl]-benzyl)-amino]-acetonitrile]",82.3%,0/3,3 nM
"CCCN(CCC)CCCCN(CC(=O)OC)Cc1ccc(CN(Cc2ncc[nH]2)Cc2nccn2C)cc1 [Compound No. 83, [(4-dipropylamino-butyl)-(4-[[(1H-imidazol-2-ylmethyl)-(1-methyl-1H-imidazol-2-ylmethyl)-amino]-methyl]-benzyl)-amino]-acetic acid methyl ester]",79.7%,0/3,3 nM
"CCCN(CCC)CCCCN(CC(=O)OC)Cc1ccc(CN(Cc2ncc[nH]2)Cc2ncc[nH]2)cc1 [Compound No. 87, [(4-[[bis-(1H-imidazol-2-ylmethyl)-amino]-methyl]-benzyl)-(4-dipropylamino-butyl)-amino]-acetic acid methyl ester]",82.1%,0/3,3 nM
"CCCN(CCC)CCCCN(CC(=O)O)Cc1ccc(CN(Cc2ncc[nH]2)Cc2ncc[nH]2)cc1 [Compound No. 88, [(4-[[bis-(1H-imidazol-2-ylmethyl)-amino]-methyl]-benzyl)-(4-dipropylamino-butyl)-amino]-acetic acid]",85%,0/3,2 nM
"CCCN(CCC)CCCCN(CC(=O)OCC)Cc1ccc(CN(Cc2ncc[nH]2)Cc2ncc[nH]2)cc1 [Compound No. 97, [(4-[[bis-(1H-imidazol-2-ylmethyl)-amino]-methyl]-benzyl)-(4-dipropylamino-butyl)-amino]-acetic acid ethyl ester]",85.6%,0/3,1 nM
"CCCN(CCC)CCCCN(CC(=O)O)Cc1ccc(CN(Cc2nccn2C)Cc2nccn2C)cc1 [Compound No. 100, [(4-[[bis-(1-methyl-1H-imidazol-2-ylmethyl)-amino]-methyl]-benzyl)-(4-dipropylamino-butyl)-amino]-acetic acid]",79.2%,0/3,2 nM

# Source: patent US7932281B2, “Amine-based compound and use thereof” (Kureha Corporation, priority 2004, dated 2011)
